A value given as a limit tells only on which side of the number the result lay.

A word on the EC50: it is the concentration needed to bring the measured effect to its halfway point.

The experiment relates to Cisd2 promoter with firefly luciferase reporter. The experiment can be described thus: Cisd2-luciferase reporter assay in HEK293-CISD2 cells. The experiment is classed as cell-based. Particulars: Homo sapiens, 24 hours incubation, luciferase luminescence. The protocol:
A typical in vitro screening method includes the following steps: (i) obtaining an initial level of Cisd2 in a batch of human embryonic kidney cells 293 (HEK-293 cells) that express Cisd2, (ii) treating the batch of HEK-293 cells with a compound of this invention, and (iii) analyzing the level of Cisd2 after the treatment, thereby determining the potency of the compound as a Cisd2 activator.
Compounds 1-109 were tested for increasing the level of Cisd2 in human embryonic kidney cells 293 (HEK293), a transfected cell line expressing Cisd2, using the Cisd2-luciferase reporter assay as follows.
The transfected HEK293 cells stably expressed Cisd2 promoter with firefly luciferase reporter (HEK293-CISD2). They were kept in Dulbecco's modified Eagle's medium (DMEM) (Gibco, New York, NY, USA). Culture medium was supplemented with 10% heat-inactivated fetal bovine serum (FBS), 2 mM L-Glutamine, 1 mM sodium pyruvate, 0.1% MEM Non-Essential Amino Acids, 1 ug/ml puromycin and 1% penicillin/streptomycin (HyClone, Logan, UT, USA). The cells were maintained at 37° C. in an incubator (Thermo Fisher Scientific, New York, NY, USA) with an atmosphere of 5% CO2. The stably transfected cells were seeded in 384-well plates at a density of 3×10^3 cells/well. After incubation with tested compounds at 37° C. for 24 hours, ONE-Glo™ Luciferase Assay System (Promega, Madison, WI, USA) was added at room temperature for 5 minutes to detect any luciferase activity. Luminescence intensity was registered using plate reader Victor^2V (PerkinElmer, Boston, MA, USA).
EC50 values in this table are presented in three classes, i.e., A: <1 μM, B: 1 μM-5 μM, and C: 5 μM-10 μM.
In general terms: Reporter assays use an easily measured gene product as a stand-in for the process of interest.

As to `Cc1cccc(S(=O)(=O)CC(=O)N2Cc3ccccc3C2)n1` [Compound 41, 1-(1,3-dihydro-2H-isoindol-2-yl)-2-[(6-methylpyridin-2-yl)sulfonyl]ethanone], the EC50 fell in the range of 1 to 5 µM.

Take `O=C(CS(=O)(=O)c1cccc(Cl)n1)N1Cc2ccccc2C1` [Compound 42, 2-[(6-chloropyridin-2-yl)sulfonyl]-1-(1,3-dihydro-2H-isoindol-2-yl)ethanone]: the EC50 lay within 1 to 5 µM.

Regarding `O=C(CS(=O)(=O)c1ncccn1)N1Cc2ccccc2C1` [Compound 43, 1-(1,3-dihydro-2H-isoindol-2-yl)-2-(pyrimidin-2-ylsulfonyl)ethanone], the concentration for a half-maximal effect (EC50) is 1 to 5 µM.

Compound `O=C(CS(=O)(=O)c1cc[n+]([O-])cc1)N1Cc2ccccc2C1` [Compound 44, 1-(1,3-dihydro-2H-isoindol-2-yl)-2-[(1-oxidopyridin-4-yl)sulfonyl]ethanone] had an EC50 of 5 to 10 µM.

Regarding `O=C(CS(=O)(=O)c1ccccc1)N1Cc2ccccc2C1` [Compound 45, 1-(1,3-dihydro-2H-isoindol-2-yl)-2-(phenylsulfonyl)-ethanone], the EC50 is below 1 µM.

Turning to `O=C(CS(=O)(=O)c1cccs1)N1Cc2ccccc2C1` [Compound 46, 1-(1,3-dihydro-2H-isoindol-2-yl)-2-(thiophen-2-ylsulfonyl)ethanone], the EC50 was below 1 µM.

`O=C(CS(=O)(=O)Cc1ccccc1)N1Cc2ccccc2C1` [Compound 47, 2-(benzylsulfonyl)-1-(1,3-dihydro-2H-isoindol-2-yl)ethanone] had a concentration giving a half-maximal response (EC50) of 5 to 10 µM.

For the compound `O=C(CCS(=O)(=O)c1nccs1)N1Cc2ccccc2C1` [Compound 48, 1-(1,3-dihydro-2H-isoindol-2-yl)-3-(1,3-thiazol-2-ylsulfonyl)propan-1-one], the EC50 is below 1 µM.

In turn, `O=C(CCS(=O)(=O)c1ccccn1)N1Cc2ccc(F)cc2C1` [Compound 49, 1-(5-fluoro-1,3-dihydro-2H-isoindol-2-yl)-3-(pyridin-2-ylsulfonyl)propan-1-one] displayed an EC50 of 1 to 5 µM.

Regarding `O=C(N1Cc2ccc(F)cc2C1)C(F)(F)S(=O)(=O)c1ccccn1` [Compound 50, 2,2-difluoro-1-(5-fluoro-1,3-dihydro-2H-isoindol-2-yl)-2-(pyridin-2-ylsulfonyl)ethanone], the EC50 was below 1 µM.

Take `O=C1N[C@H]2[C@H](CS[C@H]2CCCCC(=O)Oc2ccc3c(c2)CN(C(=O)CS(=O)(=O)c2nccs2)C3)N1` [Compound 51, 2-[(1,3-thiazol-2-ylsulfonyl)acetyl]-2,3-dihydro-1H-isoindol-5-yl 5-[(3aS,4S,6aR)-2-oxohexahydro-1H-thieno[3,4-d]imidazol-4-yl]pentanoate]: the EC50 is below 1 µM.

Turning to `O=C(N1Cc2ccccc2C1)C(F)(F)Sc1nccs1` [Compound 52, 1-(1,3-dihydro-2H-isoindol-2-yl)-2,2-difluoro-2-(1,3-thiazol-2-ylsulfanyl)ethanone], the EC50 was below 1 µM.

On to `O=C(N1Cc2ccccc2C1)C(F)(F)S(=O)(=O)c1nccs1` [Compound 53, 1-(1,3-dihydro-2H-isoindol-2-yl)-2,2-difluoro-2-(1,3-thiazol-2-ylsulfonyl)ethanone], for which the EC50 was below 1 µM.

Take `O=C(N1Cc2ccccc2C1)C(F)(F)[S+]([O-])c1nccs1` (stereo not drawn) [Compound 54, 1-(1,3-dihydro-2H-isoindol-2-yl)-2,2-difluoro-2-(1,3-thiazol-2-ylsulfinyl)ethanone]: the EC50 is below 1 µM.

With `O=C(CSc1ccccn1)N1Cc2ccc(O)cc2C1` [Compound 55, 1-(5-hydroxy-1,3-dihydro-2H-isoindol-2-yl)-2-(pyridin-2-ylsulfanyl)ethanone], the EC50 was in the range of 5 to 10 µM.

As to `O=C(CSc1cccc(F)c1)N1Cc2ccccc2C1` [Compound 56, 1-(1,3-dihydro-2H-isoindol-2-yl)-2-[(3-fluorophenyl)sulfanyl]ethanone], the EC50 was below 1 µM.

The compound `O=C(CSc1ccc(Cl)s1)N1Cc2ccccc2C1` [Compound 57, 2-[(5-chlorothiophen-2-yl)sulfanyl]-1-(1,3-dihydro-2H-isoindol-2-yl)ethanone] registered an EC50 below 1 µM.

Compound `O=C(CSc1cc(F)ccc1F)N1Cc2ccccc2C1` [Compound 58, 2-[(2,5-difluorophenyl)sulfanyl]-1-(1,3-dihydro-2H-isoindol-2-yl)ethanone] registered an EC50 below 1 µM.

As to `O=C(CSc1ccccc1F)N1Cc2ccccc2C1` [Compound 59, 1-(1,3-dihydro-2H-isoindol-2-yl)-2-[(2-fluorophenyl)sulfanyl]ethanone], the EC50 was below 1 µM.

For `O=C(CSc1ccc(F)cc1F)N1Cc2ccccc2C1` [Compound 60, 2-[(2,4-difluorophenyl)sulfanyl]-1-(1,3-dihydro-2H-isoindol-2-yl)ethanone], the EC50 was below 1 µM.

In turn, `Nc1ccc(SCC(=O)N2Cc3ccccc3C2)cc1` [Compound 61, 2-[(4-aminophenyl)sulfanyl]-1-(1,3-dihydro-2H-isoindol-2-yl)ethanone] had an EC50 below 1 µM.

On to `Cc1ccc(SCC(=O)N2Cc3ccccc3C2)cc1` [Compound 62, 1-(1,3-dihydro-2H-isoindol-2-yl)-2-[(4-methylphenyl)sulfanyl]ethanone], for which the EC50 was in the range of 5 to 10 µM.

`O=C(CSc1ccccc1F)N1Cc2ccc(F)cc2C1` [Compound 63, 1-(5-fluoro-1,3-dihydro-2H-isoindol-2-yl)-2-[(2-fluorophenyl)sulfanyl]ethanone] returned an EC50 below 1 µM.

Compound `O=C(CSc1ccccc1)N1Cc2ccc(F)cc2C1` [Compound 64, 1-(5-fluoro-1,3-dihydro-2H-isoindol-2-yl)-2-(phenylsulfanyl)ethanone] showed an EC50 below 1 µM.

In turn, `O=C(CSc1ccccc1F)N1Cc2cc(F)c(F)cc2C1` [Compound 65, 1-(5,6-difluoro-1,3-dihydro-2H-isoindol-2-yl)-2-[(2-fluorophenyl)sulfanyl]ethanone] had an EC50 below 1 µM.

`O=C(CSc1ccccc1)N1Cc2cccc(F)c2C1` [Compound 66, 1-(4-fluoro-1,3-dihydro-2H-isoindol-2-yl)-2-(phenylsulfanyl)ethanone] yielded an EC50 below 1 µM.

Regarding `O=C(CSc1ccccc1Cl)N1Cc2ccccc2C1` [Compound 67, 2-[(2-chlorophenyl)sulfanyl]-1-(1,3-dihydro-2H-isoindol-2-yl)ethanone], the EC50 was below 1 µM.

`O=C(CSc1cccc(Cl)c1Cl)N1Cc2ccccc2C1` [Compound 68, 2-[(2,3-dichlorophenyl)sulfanyl]-1-(1,3-dihydro-2H-isoindol-2-yl)ethanone] gave an EC50 of 1 to 5 µM.

As for `Cc1nc(SCC(=O)N2Cc3ccccc3C2)sc1C` [Compound 69, 1-(1,3-dihydro-2H-isoindol-2-yl)-2-[(4,5-dimethyl-1,3-thiazol-2-yl)sulfanyl]ethanone], the EC50 was 1 to 5 µM.

The compound `Cn1ccc(SCC(=O)N2Cc3ccccc3C2)n1` [Compound 70, 1-(1,3-dihydro-2H-isoindol-2-yl)-2-[(1-methyl-1H-pyrazol-3-yl)sulfanyl]ethanone] displayed an EC50 of 1 to 5 µM.

With `O=C(CSc1ncccc1F)N1Cc2ccccc2C1` [Compound 71, 1-(1,3-dihydro-2H-isoindol-2-yl)-2-[(3-fluoropyridin-2-yl)sulfanyl]ethanone], the EC50 is below 1 µM.

Compound `O=C(CSc1ncco1)N1Cc2ccccc2C1` [Compound 72, 1-(1,3-dihydro-2H-isoindol-2-yl)-2-(1,3-oxazol-2-ylsulfanyl)ethanone] came in with an EC50 below 1 µM.

As to `O=C(CSc1cccc(F)n1)N1Cc2ccccc2C1` [Compound 73, 1-(1,3-dihydro-2H-isoindol-2-yl)-2-[(6-fluoropyridin-2-yl)sulfanyl]ethanone], the EC50 lay within 1 to 5 µM.

For `N#Cc1ccc(SCC(=O)N2Cc3ccccc3C2)s1` [Compound 74, 5-{[2-(1,3-dihydro-2H-isoindol-2-yl)-2-oxoethyl]sulfanyl}thiophene-2-carbonitrile], the EC50 was below 1 µM.

As to `O=C(CSc1ccc(CO)s1)N1Cc2ccccc2C1` [Compound 75, 1-(1,3-dihydro-2H-isoindol-2-yl)-2-{[5-(hydroxymethyl)thiophen-2-yl]sulfanyl}ethanone], the EC50 is below 1 µM.

`O=C(CSc1ccc(C(F)F)s1)N1Cc2ccccc2C1` [Compound 76, 2-{[5-(difluoromethyl)thiophen-2-yl]sulfanyl}-1-(1,3-dihydro-2H-isoindol-2-yl)ethanone] showed an EC50 of 1 to 5 µM.

Take `O=C(CSc1ccccn1)N1Cc2ccc(N3CCOCC3)cc2C1` [Compound 77, 1-[5-(morpholin-4-yl)-1,3-dihydro-2H-isoindol-2-yl]-2-(pyridin-2-ylsulfanyl)ethanone]: the EC50 fell in the range of 5 to 10 µM.

In turn, `O=C(CCSc1ccccc1Cl)N1Cc2ccccc2C1` [Compound 78, 3-[(2-chlorophenyl)sulfanyl]-1-(1,3-dihydro-2H-isoindol-2-yl)propan-1-one] gave an EC50 below 1 µM.

In the case of `O=C(CCSc1ccccc1)N1Cc2ccccc2C1` [Compound 79, 1-(1,3-dihydro-2H-isoindol-2-yl)-3-(phenylsulfanyl)propan-1-one], the EC50 was below 1 µM.

Source of the values: US11827629B2, “CDGSH iron sulfur domain 2 activators and use thereof” (National Health Research Institutes, priority 2021, dated 2023).
